Test results taken from PubChem BioAssay (NCI).
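Compound exposure: 48 hours, 5 concentrations, 96-well plates. GI50: concentration for 50% inhibition of growth. TGI is the concentration that stops growth completely.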

Key:
Assay in all cases: inhibition of tumour cell growth, NCI panel, 48 h
[1] = test system: CAKI-1 renal
[2] = test system: HCT-116 colon
[3] = test system: 786-0 renal
[4] = test system: NCI-H460 lung
[5] = test system: RPMI-8226 leukemia
[6] = test system: UO-31 renal
[7] = test system: SK-OV-3 ovarian
[8] = test system: OVCAR-4 ovarian
[9] = test system: SK-MEL-5 melanoma
[10] = test system: HCC-2998 colon
[11] = test system: RXF 393 renal
[12] = test system: MCF7 breast
[13] = test system: IGROV1 ovarian
[14] = test system: SN12C renal
[15] = test system: COLO 205 colon
[16] = test system: LOX IMVI melanoma
[17] = test system: ACHN renal
[18] = test system: SF-539 CNS
[19] = test system: SNB-19 CNS
[20] = test system: HL-60(TB) leukemia
[21] = test system: CCRF-CEM leukemia
[22] = test system: OVCAR-8 ovarian
[23] = test system: TK-10 renal
[24] = test system: HOP-92 NSCLC
[25] = test system: NCI-H522 lung
[26] = test system: NCI-H226 lung
[27] = test system: OVCAR-5 ovarian
[28] = test system: DU-145 prostate
[29] = test system: SR leukemia
[30] = test system: SNB-75 CNS
[31] = test system: HOP-62 NSCLC
[32] = test system: NCI-H23 lung
[33] = test system: U251 CNS
[34] = test system: A549 NSCLC
[35] = test system: NCI/ADR-RES ovarian
[36] = test system: MDA-MB-435
[37] = test system: A498 renal
[38] = test system: HT29 colon
[39] = test system: SF-268 CNS
[40] = test system: KM12 colon
[41] = test system: SK-MEL-28 melanoma
[42] = test system: SW-620 colon
[43] = test system: BT-549 breast
[44] = test system: SF-295 CNS
[45] = test system: OVCAR-3 ovarian
[46] = test system: T-47D breast
[47] = test system: HS 578T breast
[48] = test system: MDA-MB-231 breast
[49] = test system: UACC-257 melanoma
[50] = test system: HCT-15 colon
[51] = test system: K-562 leukemia

SMILES: Cc1cc(Nc2ncc(F)c(N[C@H]3[C@@H](C(N)=O)[C@@H]4C=C[C@H]3C4)n2)ccc1N1CCN(C)CC1
- GI50 [1]: 0.0217 µM
- TGI [1]: 14 µM
- GI50 [2]: 0.0199 µM
- TGI [2]: 7.81 µM
- GI50 [3]: 0.0688 µM
- TGI [3]: 5.25 µM
- GI50 [4]: 0.0101 µM
- TGI [4]: 4.21 µM
- GI50 [5]: 1.86 µM
- TGI [5]: 6.85 µM
- GI50 [6]: 0.0393 µM
- TGI [6]: 4.64 µM
- GI50 [7]: 0.0368 µM
- TGI [7]: 2.22 µM
- GI50 [8]: 1.6 µM
- TGI [8]: 3.22 µM
- GI50 [9]: 1.97 µM
- TGI [9]: 6.79 µM
- GI50 [10]: 2.15 µM
- TGI [10]: 6.18 µM
- GI50 [11]: 0.0165 µM
- TGI [11]: 0.187 µM
- GI50 [12]: 0.0599 µM
- TGI [12]: 3.23 µM
- GI50 [13]: 0.0302 µM
- TGI [13]: 18.8 µM
- GI50 [14]: 0.0328 µM
- TGI [14]: 11.5 µM
- GI50 [15]: < 0.01 µM
- TGI [15]: < 0.0326 µM
- GI50 [16]: 0.0249 µM
- TGI [16]: 1.29 µM
- GI50 [17]: 0.0178 µM
- TGI [17]: 12.9 µM
- GI50 [18]: 0.0362 µM
- TGI [18]: 0.586 µM
- GI50 [19]: 0.725 µM
- TGI [19]: 8.75 µM
- GI50 [20]: 2.96 µM
- TGI [20]: 11.4 µM
- GI50 [21]: < 0.01 µM
- TGI [21]: 6.03 µM
- GI50 [22]: 0.133 µM
- TGI [22]: 6.34 µM
- GI50 [23]: 0.0225 µM
- TGI [23]: 1.96 µM
- GI50 [24]: 0.0249 µM
- TGI [24]: 0.327 µM
- GI50 [25]: 0.0436 µM
- TGI [25]: 3.35 µM
- GI50 [26]: < 0.0156 µM
- TGI [26]: 2.85 µM
- GI50 [27]: 0.0405 µM
- TGI [27]: > 20.4 µM
- GI50 [28]: 0.455 µM
- TGI [28]: 17.7 µM
- GI50 [29]: < 0.01 µM
- TGI [29]: 2.32 µM
- GI50 [30]: < 0.0153 µM
- TGI [30]: 0.167 µM
- GI50 [31]: 0.134 µM
- TGI [31]: 2.56 µM
- GI50 [32]: 1.51 µM
- TGI [32]: 7.15 µM
- GI50 [33]: 0.0694 µM
- TGI [33]: 4.8 µM
- GI50 [34]: < 0.01 µM
- TGI [34]: 2.32 µM
- GI50 [35]: 0.348 µM
- TGI [35]: 8.57 µM
- GI50 [36]: 1.49 µM
- TGI [36]: 15.6 µM
- GI50 [37]: < 0.0116 µM
- TGI [37]: 0.0693 µM
- GI50 [38]: 0.0471 µM
- GI50 [39]: 0.107 µM
- TGI [39]: 6.68 µM
- GI50 [40]: 0.208 µM
- TGI [40]: 11.5 µM
- GI50 [41]: 4.28 µM
- TGI [41]: 17.7 µM
- GI50 [42]: 0.0218 µM
- TGI [42]: 8.5 µM
- GI50 [43]: 0.0765 µM
- TGI [43]: 1.15 µM
- GI50 [44]: < 0.0177 µM
- TGI [44]: 12.7 µM
- GI50 [45]: 1.48 µM
- TGI [45]: 3.15 µM
- GI50 [46]: 6.74 µM
- TGI [46]: 26.7 µM
- GI50 [47]: 0.0274 µM
- TGI [47]: 0.33 µM
- GI50 [48]: 0.124 µM
- TGI [48]: 1.73 µM
- GI50 [49]: 4.07 µM
- TGI [49]: 18.1 µM
- GI50 [50]: 0.0374 µM
- TGI [50]: 16 µM
- GI50 [51]: 0.416 µM
- TGI [51]: > 100 µM
